# Test results taken from PubChem BioAssay (NCI).
#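 Following 48 hours of exposure in 96-well plates, responses at five concentrations were used to interpolate endpoints linearly. At the GI50, growth is halved. TGI: total growth inhibition.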
# Columns and labels:
# Assay in all cases: NCI anticancer screen, dose series, 48 h
# [1] = system: A498 renal
# [2] = system: T-47D breast
# [3] = system: HL-60(TB) leukemia
# [4] = system: NCI-H23 lung
# [5] = system: SR leukemia
# [6] = system: NCI-H460 lung
# [7] = system: M14 melanoma
# [8] = system: MDA-MB-231 breast
# [9] = system: SK-OV-3 ovarian
# [10] = system: OVCAR-3 ovarian
# [11] = system: SK-MEL-5 melanoma
# [12] = system: MOLT-4 leukemia
# [13] = system: RPMI-8226 leukemia
# [14] = system: SK-MEL-28 melanoma
# [15] = system: IGROV1 ovarian
# [16] = system: HCT-116 colon
# [17] = system: OVCAR-4 ovarian
# [18] = system: SN12C renal
# [19] = system: COLO 205 colon
# [20] = system: MALME-3M melanoma
# [21] = system: UACC-62 melanoma
# [22] = system: SK-MEL-2 melanoma
# [23] = system: A549 NSCLC
# [24] = system: OVCAR-5 ovarian
# [25] = system: MDA-MB-468 breast
# [26] = system: HT29 colon
# [27] = system: SNB-19 CNS
# [28] = system: BT-549 breast
# [29] = system: PC-3 prostate
# [30] = system: CAKI-1 renal
# [31] = system: NCI-H226 lung
# [32] = system: RXF 393 renal
# [33] = system: MDA-MB-435
# [34] = system: K-562 leukemia
# [35] = system: HCT-15 colon
# [36] = system: HOP-92 NSCLC
# [37] = system: ACHN renal
# [38] = system: CCRF-CEM leukemia
# [39] = system: DU-145 prostate
# [40] = system: U251 CNS
# [41] = system: OVCAR-8 ovarian
# [42] = system: TK-10 renal
# [43] = system: HCC-2998 colon
# [44] = system: SNB-75 CNS
# [45] = system: LOX IMVI melanoma
# [46] = system: MCF7 breast
# [47] = system: UO-31 renal
# [48] = system: SF-539 CNS
# [49] = system: NCI-H522 lung
# [50] = system: SF-268 CNS
# [51] = system: SF-295 CNS
# [52] = system: 786-0 renal
# [53] = system: NCI/ADR-RES ovarian
# [54] = system: KM12 colon
# [55] = system: SW-620 colon
# [56] = system: HOP-62 NSCLC
# [57] = system: UACC-257 melanoma
# [58] = system: EKVX NSCLC
# [59] = system: HS 578T breast
structure (smiles),measurement,setting,value
Cc1ccc(-c2nc3ccc(C(=O)N=Nc4c(O)[nH]c5ccc(Cl)cc45)cc3[nH]2)cc1,GI50,[1],> 100 µM
same,TGI,[1],> 100 µM
same,GI50,[2],44.5 µM
same,TGI,[2],> 100 µM
same,GI50,[3],> 100 µM
same,TGI,[3],> 100 µM
same,GI50,[4],6.63 µM
same,TGI,[4],28.9 µM
same,GI50,[5],> 100 µM
same,TGI,[5],> 100 µM
same,GI50,[6],8.67 µM
same,TGI,[6],> 100 µM
same,GI50,[7],57.8 µM
same,TGI,[7],> 100 µM
same,GI50,[8],10.7 µM
same,TGI,[8],40.3 µM
same,GI50,[9],> 100 µM
same,TGI,[9],> 100 µM
same,GI50,[10],7.29 µM
same,TGI,[10],74.4 µM
same,GI50,[11],> 100 µM
same,TGI,[11],> 100 µM
same,GI50,[12],4.12 µM
same,TGI,[12],> 100 µM
same,GI50,[13],67.7 µM
same,TGI,[13],> 100 µM
same,GI50,[14],36.1 µM
same,TGI,[14],> 100 µM
same,GI50,[15],81.9 µM
same,TGI,[15],> 100 µM
same,GI50,[16],16 µM
same,TGI,[16],> 100 µM
same,GI50,[17],15 µM
same,TGI,[17],51.3 µM
same,GI50,[18],38.9 µM
same,TGI,[18],> 100 µM
same,GI50,[19],24.6 µM
same,TGI,[19],> 100 µM
same,GI50,[20],15.6 µM
same,TGI,[20],43.8 µM
same,GI50,[21],> 100 µM
same,TGI,[21],> 100 µM
same,GI50,[22],> 100 µM
same,TGI,[22],> 100 µM
same,GI50,[23],56.8 µM
same,TGI,[23],> 100 µM
same,GI50,[24],25.5 µM
same,TGI,[24],> 100 µM
same,GI50,[25],5.28 µM
same,TGI,[25],21.8 µM
same,GI50,[26],17.6 µM
same,TGI,[26],> 100 µM
same,GI50,[27],30.1 µM
same,TGI,[27],> 100 µM
same,GI50,[28],96.3 µM
same,TGI,[28],> 100 µM
same,GI50,[29],13.4 µM
same,TGI,[29],39.2 µM
same,GI50,[30],> 100 µM
same,TGI,[30],> 100 µM
same,GI50,[31],> 100 µM
same,TGI,[31],> 100 µM
same,GI50,[32],> 100 µM
same,TGI,[32],> 100 µM
same,GI50,[33],10.1 µM
same,TGI,[33],94.9 µM
same,GI50,[34],8.85 µM
same,TGI,[34],> 100 µM
same,GI50,[35],> 100 µM
same,TGI,[35],> 100 µM
same,GI50,[36],72.6 µM
same,TGI,[36],> 100 µM
same,GI50,[37],> 100 µM
same,TGI,[37],> 100 µM
same,GI50,[38],5.77 µM
same,TGI,[38],> 100 µM
same,GI50,[39],5.57 µM
same,TGI,[39],88.4 µM
same,GI50,[40],25.3 µM
same,TGI,[40],> 100 µM
same,GI50,[41],> 100 µM
same,TGI,[41],> 100 µM
same,GI50,[42],> 100 µM
same,TGI,[42],> 100 µM
same,GI50,[43],18.7 µM
same,TGI,[43],> 100 µM
same,GI50,[44],66.5 µM
same,TGI,[44],> 100 µM
same,GI50,[45],4.81 µM
same,TGI,[45],18.9 µM
same,GI50,[46],5.03 µM
same,TGI,[46],47.4 µM
same,GI50,[47],> 100 µM
same,TGI,[47],> 100 µM
same,GI50,[48],> 100 µM
same,TGI,[48],> 100 µM
same,GI50,[49],4.3 µM
same,TGI,[49],21.3 µM
same,GI50,[50],24.2 µM
same,TGI,[50],> 100 µM
same,GI50,[51],> 100 µM
same,TGI,[51],> 100 µM
same,GI50,[52],20.9 µM
same,TGI,[52],65.4 µM
same,GI50,[53],> 100 µM
same,TGI,[53],> 100 µM
same,GI50,[54],> 100 µM
same,TGI,[54],> 100 µM
same,GI50,[55],3.3 µM
same,TGI,[55],26 µM
same,GI50,[56],78.4 µM
same,TGI,[56],> 100 µM
same,GI50,[57],> 100 µM
same,TGI,[57],> 100 µM
same,GI50,[58],> 100 µM
same,TGI,[58],> 100 µM
same,GI50,[59],31.2 µM
same,TGI,[59],> 100 µM
